Tests used:
Format in all cases: physicochemical
[1] = Iron binding efficiency, logK(β110) (Table 1); details: one metal, one ligand, no protons
Excerpt: (§1) The binding efficiencies may be expressed as a binding constant. A binding constant (also called formation constant or stability constant) is an equilibrium constant for the formation of a complex in solution. It is a measure of the strength of the interaction between the reagents that come together to form the complex. As an example, various stains may comprise catechins as shown in Formula (13).
(§2) In Table 1, the reaction between metals and ligands is described in terms of log K(β110). In this context, K, is the equilibrium constant for the reaction between ligands and metals. The higher K, the more metal is bound. This is illustrated in the following example.
(§3) β, represents the binding efficiency and receives some subscripts (βmlh) to indicate how many metals (m), ligands (l), and protons (h) respectively are involved.

[2] = Calcium binding efficiency, logK(β110) (Table 1); details: one metal, one ligand, no protons
Excerpt: as §1, §2, §3

[3] = pKa of chelating agents (Table 1); details: successive pKa values; (A)/(B) printed beside the catechin values
Excerpt: Chelation is a type of bonding of ions and molecules to metal ions. It involves the formation or presence of two or more separate coordinate bonds between a ligand and a metal atom. Without being bound by theory, the stain removal effectiveness of a composition comprising one or more chelating agents may depend at least in part on the ability of the chelating agent(s) to bind to iron, which may be present in some stains, such as fruit or beverage stains. Several factors may impact a chelating agent's ability to bind to iron. These factors may include the pKa of the chelating agent compared to the wash pH, and the affinity of the chelating agent to bind with other metals, materials, or compositions in the wash.
Various embodiments may provide or employ a composition that comprises one or more chelating agents having a pKa that is near to or less than the wash pH. […] Various embodiments may also employ a wash liquor pH of about 10 or less, about 9.5 or less, less than about 9, preferably from about 6.5 to about 8.5, most preferably from about 7.0 to about 8.5. They may also include the step of maintaining the pH of the wash liquor at about 10 or less, about 9.5 or less, less than about 9, preferably from about 6.5 to about 8.5, most preferably from about 7.0 to about 8.5.

Fe (III) logK(β110) [1] | Ca^2+ logK(β110) [2] | pKa [3] | Structure (SMILES)
14.7 | 6.7 | 8.7 | COC(=O)c1cc(O)c(O)c(O)c1 [Methyl Gallate]
14.7 | 6.7 | 8.7 | CCOC(=O)c1cc(O)c(O)c(O)c1 [Ethyl Gallate]
